Experimental data published in the CheMixHub viscosity set.
Where “and” joins values, the source holds several entries; their conditions need not be identical. Identical values can stand only once.

Assays:
[1] = xn = mol fraction of the nth substance listed

O=[N+]([O-])c1ccccc1
viscosity
Details	293.15 K	298.15 K	303.15 K	308.15 K	313.15 K	318.15 K	323.15 K
100 kPa	2.087 mPa·s	1.909 mPa·s	1.755 mPa·s	–	1.501 mPa·s	1.397 mPa·s	1.303 mPa·s
101 kPa	1.931 mPa·s	–	–	1.457 mPa·s and 1.242 mPa·s and 1.601 mPa·s	1.402 mPa·s	–	1.192 mPa·s
101.3 kPa	–	1.773 mPa·s	–	–	1.373 mPa·s	–	–
101.33 kPa	2.024 mPa·s and 2.079 mPa·s and 2.079 mPa·s	–	1.665 mPa·s	–	–	–	–

c1ccccc1
Details	viscosity
293.15 K, 100 kPa	0.641 mPa·s and 0.656 mPa·s
293.15 K, 101 kPa	0.644 mPa·s and 0.629 mPa·s and 0.646 mPa·s
293.15 K, 101.33 kPa	0.645 mPa·s and 0.645 mPa·s
293.16 K, 101 kPa	0.652 mPa·s
294.35 K, 101.33 kPa	0.6559 mPa·s
298 K, 101 kPa	0.6139 mPa·s
298 K, 101.33 kPa	0.596 mPa·s
298.15 K, 100 kPa	0.6121 mPa·s
298.15 K, 101.3 kPa	0.609 mPa·s
303.15 K, 101.32 kPa	0.576 mPa·s
303.95 K, 101.33 kPa	0.5989 mPa·s
304.85 K, 101.33 kPa	0.5927 mPa·s
307.35 K, 101.33 kPa	0.53 mPa·s
307.4 K, 101.33 kPa	0.309 mPa·s
312.95 K, 101.33 kPa	0.5173 mPa·s
313 K, 101 kPa	0.4925 mPa·s and 0.4923 mPa·s and 0.4923 mPa·s
313 K, 101.33 kPa	0.489 mPa·s
313.15 K, 100 kPa	0.491 mPa·s
313.25 K, 101.33 kPa	0.5324 mPa·s
318 K, 101 kPa	0.4788 mPa·s
318 K, 101.3 kPa	0.4765 mPa·s
318.15 K, 101.33 kPa	0.553 mPa·s and 0.553 mPa·s
322.75 K, 101.33 kPa	0.4749 mPa·s
322.85 K, 101.33 kPa	0.4803 mPa·s
323.15 K, 100 kPa	0.435 mPa·s
323.15 K, 101 kPa	0.438 mPa·s and 0.4367 mPa·s and 0.434 mPa·s

CCCCCCCC + c1ccccc1
[1], 298.15 K, 101.33 kPa
Details	viscosity [mPa·s]
x1 = 0.04472	0.5829
x1 = 0.09184	0.5595
x1 = 0.1715	0.5352
x1 = 0.2954	0.5061
x1 = 0.4088	0.4934
x1 = 0.4907	0.4904
x1 = 0.5855	0.4924
x1 = 0.739	0.4929
x1 = 0.928	0.5124

CCCCCCCCCCCCCC + c1ccccc1
[1]
Details	viscosity [mPa·s]
298 K, 101 kPa, x2 = 0.5	1.239
298.15 K, 101 kPa, x1 = 0.1005	0.696
298.15 K, 101 kPa, x1 = 0.2025	0.803
298.15 K, 101 kPa, x1 = 0.3001	0.909
298.15 K, 101 kPa, x1 = 0.3948	1.038
298.15 K, 101 kPa, x1 = 0.469	1.168
298.15 K, 101 kPa, x1 = 0.5776	1.318
298.15 K, 101 kPa, x1 = 0.6954	1.468
298.15 K, 101 kPa, x1 = 0.8004	1.664
298.15 K, 101 kPa, x1 = 0.9094	1.86
298.15 K, 101.33 kPa, x1 = 0.04444	0.6498
298.15 K, 101.33 kPa, x1 = 0.09068	0.6807
298.15 K, 101.33 kPa, x1 = 0.2125	0.8158
298.15 K, 101.33 kPa, x1 = 0.4169	1.079
298.15 K, 101.33 kPa, x1 = 0.5121	1.221
298.15 K, 101.33 kPa, x1 = 0.6271	1.423
298.15 K, 101.33 kPa, x1 = 0.7139	1.579
298.15 K, 101.33 kPa, x1 = 0.8006	1.716
298.15 K, 101.33 kPa, x1 = 0.8822	1.842
303.15 K, 101 kPa, x1 = 0.1005	0.653
303.15 K, 101 kPa, x1 = 0.2025	0.748
303.15 K, 101 kPa, x1 = 0.3001	0.842
303.15 K, 101 kPa, x1 = 0.3948	0.961
303.15 K, 101 kPa, x1 = 0.469	1.081
303.15 K, 101 kPa, x1 = 0.5776	1.211
303.15 K, 101 kPa, x1 = 0.6954	1.341
303.15 K, 101 kPa, x1 = 0.8004	1.513
303.15 K, 101 kPa, x1 = 0.9094	1.684
308.15 K, 101 kPa, x1 = 0.1005	0.611
308.15 K, 101 kPa, x1 = 0.2025	0.699
308.15 K, 101 kPa, x1 = 0.3001	0.786
308.15 K, 101 kPa, x1 = 0.3948	0.894
308.15 K, 101 kPa, x1 = 0.469	1.002
308.15 K, 101 kPa, x1 = 0.5776	1.115
308.15 K, 101 kPa, x1 = 0.6954	1.228
308.15 K, 101 kPa, x1 = 0.8004	1.384
308.15 K, 101 kPa, x1 = 0.9094	1.54
318 K, 101 kPa, x2 = 0.5	0.9217

Cc1ccnc(C)c1 + c1ccccc1
viscosity [mPa·s], [1], 101 kPa
Details	x1 = 0.1033	x1 = 0.1926	x1 = 0.3022	x1 = 0.397	x1 = 0.492	x1 = 0.6027	x1 = 0.697	x1 = 0.8005	x1 = 0.8995
303 K	0.5693	0.5838	0.6013	0.6187	0.6483	0.6749	0.6927	0.7197	0.7508
313 K	0.5048	0.5147	0.5305	0.5497	0.5727	0.5908	0.6073	0.6318	0.6679
323 K	0.4489	0.4582	0.4749	0.4967	0.5102	0.5277	0.5424	0.5752	0.5919

ClC(Cl)=C(Cl)Cl + c1ccccc1
[1]
Details	viscosity [mPa·s]
298.15 K, 101 kPa, x2 = 0.0876	0.8015
298.15 K, 101 kPa, x2 = 0.1609	0.771
298.15 K, 101 kPa, x2 = 0.3555	0.7018
298.15 K, 101 kPa, x2 = 0.452	0.6743
298.15 K, 101 kPa, x2 = 0.6216	0.6351
298.15 K, 101 kPa, x2 = 0.6602	0.6286
298.15 K, 101 kPa, x2 = 0.708	0.6209
298.15 K, 101 kPa, x2 = 0.781	0.6115
298.15 K, 101 kPa, x2 = 0.8752	0.6029
298.15 K, 101 kPa, x2 = 0.9037	0.6011
303.15 K, 101.33 kPa, x1 = 0.1913	0.577
303.15 K, 101.33 kPa, x1 = 0.2749	0.584
303.15 K, 101.33 kPa, x1 = 0.3761	0.605
303.15 K, 101.33 kPa, x1 = 0.4668	0.624
303.15 K, 101.33 kPa, x1 = 0.5756	0.648
303.15 K, 101.33 kPa, x1 = 0.6664	0.675
303.15 K, 101.33 kPa, x1 = 0.7757	0.712
303.15 K, 101.33 kPa, x1 = 0.8828	0.746

O=[N+]([O-])c1ccccc1 + c1ccccc1
[1], 101 kPa
Details	viscosity [mPa·s]
298.15 K, x2 = 0.2096	1.417
298.15 K, x2 = 0.4874	1.017
298.15 K, x2 = 0.8636	0.681
303.15 K, x1 = 0.0887	0.6013
303.15 K, x1 = 0.1796	0.654
303.15 K, x1 = 0.2737	0.7103
303.15 K, x1 = 0.3694	0.7841
303.15 K, x1 = 0.4673	0.865
303.15 K, x1 = 0.5682	0.9589
303.15 K, x1 = 0.6723	1.075
303.15 K, x1 = 0.7788	1.218
303.15 K, x1 = 0.8874	1.39

ClC(Cl)=C(Cl)Cl + c1ccncc1
[1], 298.15 K, 101 kPa
Details	viscosity [mPa·s]
x1 = 0.0296	0.8879
x1 = 0.1254	0.8794
x1 = 0.1862	0.875
x1 = 0.2246	0.8719
x1 = 0.2887	0.8657
x1 = 0.4448	0.8496
x1 = 0.5638	0.8411
x1 = 0.6271	0.837
x1 = 0.7214	0.8324
x1 = 0.842	0.8315
x1 = 0.9127	0.8331
x1 = 0.9559	0.8373
